In patent publication US20080311657A1, “Killing Human Lymphoma and Leukemia Cancer Cells and Tcr-Activated Normal Human Cells By Dopamine D1r Agonists” (priority 2005, published 2008):

Key:
Test in all cases: Number of living cells counted by flow cytometry (FACSort) after D1R agonist
Type in all cases: cell-based
Details in all cases: 10^−3M-10^−6M, 3 days
[1] = test system: Human Burkitt's B-cell lymphoma (Raji) cells
Procedure: (§1) Afterwards, the microtiter plates were placed in an incubator (37° C., humidified incubator, 5% CO2) for 3 days. Then, the number of living cells was evaluated by flow cytometry (the cells were counted by FACsort for a fixed time length of 1 min, in which 100 microliter of each sample was tested).
(§2) Cell viability was tested afterwards.

[2] = test system: Human Burkitt's B-lymphoma cells (Daudi)
Procedure: (§3) Human Burkitt's B-lymphoma cells (Daudi) were seeded in 96 well plates (0.5 ml per well of 0.5 million cells/ml) and A 77636 hydrochloride was added and diluted 1:00 into the wells at starting concentrations of 10^−1M-10^−4M, so that the final concentration range tested was 10^−3M-10^−6M. […] Then, the number of living cells was evaluated by flow cytometry (the cells were counted by FACsort for a fixed time length of 1 min, in which 100 microliter of each sample was tested).
as §3, with “68930” for “77636”
[…] Then, the number of living cells was evaluated by flow cytometry (the cells were counted by FACsort for a fixed time length of 1 min, in which 100 microliter of each sample was tested).
as §2
(§4) The effect of dopamine itself (that can of course activate all its D1R-5 receptors) was also tested. All of these molecules were tested at a similar concentration (10^−4 M). […] The specificity and restriction of the effect to the D1R is also seen in Tables 7 and 8.

[3] = test system: resting normal human T-cells
Procedure: as §1
FIGS. 31A and B are graphs showing that A 77636 hydrochloride kills much more TCR-activated (FIG. 31B) than resting normal (FIG. 31A) human T-cells. […] The cells were then transferred to the incubator for 72 hr incubation. At the end of the 72 hr incubation, the number of living cells in each well was evaluated by flow cytometry (the cells were counted by FACsort for a fixed time length of 1 min, in which 100 microliter of each sample was tested).
as §2

[4] = test system: Human T-cell leukemia (Jurkat) cells
Procedure: as §1, with “tested). Of note, A 77636 hydrochloride is an orally-active D1R agonist, according to the manufacturer (Tocris).” for “tested).”
as §1
(§5) The experiment was designed to test the effect of exposing the cells to the D1R agonist for 1 min, 15 min, 1 hr or 72 hr. Thus, 1 min, or 15 min or 1 hr after the addition of the D1R agonist, the corresponding cells were transferred into tubes, centrifuged (1000 rpm for 10 min); and the supernatant was removed. […] Thus, its medium was not replaced, and these cells and remained as such in the incubator for 72 hr. At the end of the 72 hr incubation, the number of living cells was evaluated by flow cytometry (the cells were counted by FACsort for a fixed time length of 1 min, in which 100 microliter of each sample was tested).
as §2
(§6) For this purpose, the Jurkat T-cell leukemia line, the HuT-78 human T-lymphoma (cutaneous “Sezary” T-lymphoma) line, and the K-562 human Chronic-Myeloid Leukemia (CML) and Daudi Human B-lymphoma (Burkitt's lymphoma) lines were seeded in tissue culture wells (0.5 million cells/0.5 ml/well).
(§7) Cell survival/death was evaluated 3 days later by counting the number of living cells, using flow cytometry.

[5] = test system: Human chronic myelogenous leukemia cells (CML) (K-562)
Procedure: (§8) Human chronic myelogenous leukemia cells (CML) (K-562) were seeded in 96 well plates (0.5 ml per well of 0.5 million cells/ml) and A 77636 hydrochloride was added and diluted 1:00 into the wells at starting concentrations of 10^−1M-10^−4M, so that the final concentration range tested was 10^−3M-10^−6M. Afterwards, the microtiter plates were placed in an incubator (37° C., humidified incubator, 5% CO2) for 3 days. Then, the number of living cells was evaluated by flow cytometry (the cells were counted by FACsort for a fixed time length of 1 min, in which 100 microliter of each sample was tested).
as §8, with “68930” for “77636”
as §8, with “SKF 38393 hydrobromide” for “A 77636 hydrochloride”
as §5, with “Human chronic myelogenous leukemia cells (CML) (K-562) were seeded in 96 well plates (0.5 ml per well of 0.5 million cells/ml) and A 77636 hydrochloride was added and diluted 1:00 into the wells, at a fixed starting concentration of 10^−2M, so that the final concentration tested was 10^−4M. The” for “The”, “min),” for “min);”
as §2, §6, §7, §4

[6] = test system: Human cutaneous Sezary T-lymphoma cells (HuT-78)
Procedure: as §8, with “cutaneous Sezary T-lymphoma” for “chronic myelogenous leukemia”, “(HUT-78)” for “(CML) (K-562)”
as §8, with “cutaneous Sezary T-lymphoma” for “chronic myelogenous leukemia”, “(HUT-78)” for “(CML) (K-562)”, “68930” for “77636”
as §8, with “cutaneous Sezary T-lymphoma” for “chronic myelogenous leukemia”, “(HUT-78)” for “(CML) (K-562)”, “SKF 38393 hydrobromide” for “A 77636 hydrochloride”
Cell viability was tested afterwards. […]
as §7

**Q.** With `Cl.NC[C@@H]1O[C@H](c2ccccc2)Cc2c1ccc(O)c2O` (racemic) [A 68930 hydrochloride, cis-(±)-1-(aminomethyl)-3,4-dihydro-3-phenyl-1H-2-benzopyran-5,6-diol hydrochloride] as the compound, how does the “Cell death by number of living cells (FIGS. 19-21), in words” value [1] read?
**A.** Its value is “induces marked cell death”.

**Q.** And the “Cell death by number of living cells (FIGS. 16-18), in words” value [2]?
**A.** Its value is “induces marked cell death”.

**Q.** And the “Killing effect by number of living cells (FIGS. 25-27), in words” value [3]?
**A.** The value was “significantly milder killing effect”.

**Q.** What about the “Cell death by number of living cells (FIGS. 10-12), in words” value [4] of the same compound?
**A.** Its value is “induces marked cell death”.

**Q.** And the “Cell death by number of living cells (FIGS. 22-24), in words” value [5]?
**A.** The value was “induces marked cell death”.

**Q.** What about the “Cell death by number of living cells (FIGS. 13-15), in words” value [6] of the same compound?
**A.** The value was “induces marked cell death”.

**Q.** `Br.Oc1cc2c(cc1O)C(c1ccccc1)CNCC2` (racemic) [SKF 38393 hydrobromide, (±)-1-phenyl-2,3,4,5-tetrahydro-(1H)-3-benzazepine-7,8-diol hydrobromide] was tested. Which “Cell death by number of living cells (FIGS. 19-21), in words” value [1] did it give?
**A.** The value was “induces marked cell death”.

**Q.** What about the “Cell death by number of living cells (FIGS. 16-18), in words” value [2] of the same compound?
**A.** Its value is “induces marked cell death”.

**Q.** What about the “Killing effect by number of living cells (FIGS. 25-27), in words” value [3] of the same compound?
**A.** The value was “significantly milder killing effect”.

**Q.** And the “Cell death by number of living cells (FIGS. 10-12), in words” value [4]?
**A.** The value was “induces marked cell death”.

**Q.** And the “Cell death by number of living cells (FIGS. 22-24), in words” value [5]?
**A.** The value was “induces marked cell death”.

**Q.** What about the “Cell death by number of living cells (FIGS. 13-15), in words” value [6] of the same compound?
**A.** The value was “induces marked cell death”.
